{"source": "patent US12194140B2", "about": "“Compositions for topical treatment of microbial infections” (Hennepin Life Sciences, priority 2012, dated 2025)", "key": {"E. coli (Watson strain)": {"tested_on": "E. coli (Watson strain)", "experiment": "GML and EDTA on the growth of E. coli", "format": "cell-based", "details": "24 hours; EDTA 0.05 M to 0.00005 M; GML 100 μg/mL", "description": "E. coli (Watson strain) was adjusted to I.2×10^7/mL in Todd Hewitt media. […] Cultures were incubated with shaking (200 RPM) for 24 hours, at which time samples were removed for plate counting. To further assess the combined effects of GML and EDTA, the experiment was carried out as above, and the relative effects on the growth of E. coli of EDTA alone or the combination of GML and EDTA were assessed in direct comparison to GML alone."}, "S. pyogenes (strain 594)": {"tested_on": "S. pyogenes (strain 594)", "experiment": "Antibacterial effects of various forms of GML", "format": "cell-based", "description": "In order to test for potential differences between the optical isomers, the R form of GML, which is commercially available, was compared to a GML racemic mixture of the R and S forms. […] Antibacterial effects of these forms of GML was assessed on S. pyogenes (strain 594)."}, "[1]": {"experiment": "Solubility of Tenofovir in non-aqueous gels", "format": "physicochemical", "details": "10 mg/mL", "description": "Non-aqueous gels comprised of propylene glycol (73.55% w/w), polyethylene glycol 400 (25% w/w), and hydroxypropyl cellulose (1.25% w/w) at a range of pH from 4.0 to 4.5 were prepared. The anti-HIV drug Tenofovir was added to the gels at a concentration of 10 mg/mL to determine if the drug was soluble in the compositions."}}, "note": "“Also recorded” adds a separate entry of the source."}
{"smiles": "O=C(O)CN(CCN(CC(=O)O)CC(=O)O)CC(=O)O", "note": "[EDTA, ethylenediaminetetraacetic acid]", "values": [{"measurement": "anti-bacterial activity on growth of E. coli (CFU/mL)", "setting": "E. coli (Watson strain)", "value": "inhibited the growth of E. coli somewhat, in a dose-dependent manner; also recorded: inhibited the growth of E. coli to some extent at higher concentrations"}]}
{"smiles": "CCCCCCCCCCCC(=O)OC(CO)CO", "note": "[Glycerol monolaurate (GML) 2-position]", "values": [{"measurement": "activity relative to the mixture of 2-position and ⅓-position GML forms", "setting": "S. pyogenes (strain 594)", "value": 2, "unit": "fold"}]}
{"smiles": "CCCCCCCCCCCC(=O)OC[C@H](O)CO", "note": "[R form GML]", "values": [{"measurement": "antibacterial activity, R form versus mixture of R and S forms", "setting": "S. pyogenes (strain 594)", "value": "same antibacterial activity"}]}
{"smiles": "C[C@H](Cn1cnc2c(N)ncnc21)OCP(=O)(O)O", "note": "[Tenofovir]", "values": [{"measurement": "solubility in non-aqueous gel", "setting": "[1]; pH 4.0-4.3", "value": "not soluble"}, {"measurement": "solubility in non-aqueous gel", "setting": "[1]; pH 4.4 or 4.5", "value": "soluble"}]}
{"smiles": "CCCCCCCCCCCC(=O)OCC(O)CO", "note": "(stereo not drawn) [mixture of R and S form GML]", "values": [{"measurement": "antibacterial activity, R form versus mixture of R and S forms", "setting": "S. pyogenes (strain 594)", "value": "same antibacterial activity"}]}
